In US20110009351A1, “SCREENING ASSAY TO IDENTIFY CORRECTORS OF PROTEIN TRAFFICKING DEFECTS” (Traffick Therepeutics Inc., priority 2007, published 2011):
Where a name gives a salt, the structure may show the parent alone.

How the values were obtained:
ΔF508-CFTR [1] = target: T1, ΔF508-CFTR (Mus musculus, UniProt P26361, DEL508-508); assay: ex vivo treatment of ileum from ΔF508-CFTR mice, Isc response to forskolin+genistein; conditions: 20 μM, 5-6 h ex vivo
T1 construct: from tissue; host or cells: ileal mucosa of homozygous ΔF508 mice (A11 ex vivo, A12 after gavage); salivary secretion in the living mouse (A13)
T1 sequence (P26361 with tags, fused parts or gaps DEL508-508): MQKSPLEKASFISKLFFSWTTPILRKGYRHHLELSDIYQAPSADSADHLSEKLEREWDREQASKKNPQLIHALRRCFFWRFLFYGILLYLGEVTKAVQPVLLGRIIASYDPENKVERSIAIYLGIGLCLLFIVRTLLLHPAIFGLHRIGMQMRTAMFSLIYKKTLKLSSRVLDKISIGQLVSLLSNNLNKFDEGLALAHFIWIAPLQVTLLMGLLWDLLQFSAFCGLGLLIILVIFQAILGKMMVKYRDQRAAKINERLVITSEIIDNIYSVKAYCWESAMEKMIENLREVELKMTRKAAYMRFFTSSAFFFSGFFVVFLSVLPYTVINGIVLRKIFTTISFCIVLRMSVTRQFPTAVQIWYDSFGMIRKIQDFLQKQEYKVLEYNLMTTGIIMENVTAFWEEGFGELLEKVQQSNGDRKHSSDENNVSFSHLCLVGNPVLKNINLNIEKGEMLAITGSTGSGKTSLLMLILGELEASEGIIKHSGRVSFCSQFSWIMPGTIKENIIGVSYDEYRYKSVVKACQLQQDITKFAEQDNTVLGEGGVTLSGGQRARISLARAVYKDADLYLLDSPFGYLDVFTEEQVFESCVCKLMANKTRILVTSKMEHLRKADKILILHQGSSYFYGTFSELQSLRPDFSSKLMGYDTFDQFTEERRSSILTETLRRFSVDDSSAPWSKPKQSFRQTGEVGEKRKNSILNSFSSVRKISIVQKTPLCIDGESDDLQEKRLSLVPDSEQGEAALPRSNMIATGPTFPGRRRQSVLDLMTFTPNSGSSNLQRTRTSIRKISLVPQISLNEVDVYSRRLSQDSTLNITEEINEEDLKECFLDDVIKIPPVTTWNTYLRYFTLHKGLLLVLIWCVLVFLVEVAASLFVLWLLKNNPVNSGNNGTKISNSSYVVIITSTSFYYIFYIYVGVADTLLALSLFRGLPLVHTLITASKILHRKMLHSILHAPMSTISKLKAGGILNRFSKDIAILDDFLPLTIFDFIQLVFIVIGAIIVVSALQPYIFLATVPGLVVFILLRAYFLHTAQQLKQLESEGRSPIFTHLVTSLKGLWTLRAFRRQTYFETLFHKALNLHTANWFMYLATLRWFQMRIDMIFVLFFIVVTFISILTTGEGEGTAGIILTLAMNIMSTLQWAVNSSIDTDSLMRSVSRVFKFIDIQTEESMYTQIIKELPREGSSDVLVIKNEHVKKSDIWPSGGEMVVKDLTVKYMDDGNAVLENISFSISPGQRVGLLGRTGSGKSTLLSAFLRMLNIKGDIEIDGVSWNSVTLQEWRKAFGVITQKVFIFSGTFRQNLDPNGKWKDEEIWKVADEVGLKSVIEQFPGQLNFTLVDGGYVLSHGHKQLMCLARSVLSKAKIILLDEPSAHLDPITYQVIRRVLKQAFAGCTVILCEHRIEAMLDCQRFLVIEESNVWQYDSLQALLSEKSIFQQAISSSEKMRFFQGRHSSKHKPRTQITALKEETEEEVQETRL
Procedure: Glafenine was tested ex vivo and in vivo using ileum from homozygous Δ508-CFTR mice (CFTR^tm1 Eur; van Doorninck et al., 1995) and wild-type littermates controls. Mice were 14-17 weeks old, weighed 24-30 g, and were genotyped by standard PCR methods using tail DNA. The mice were kept in a pathogen-free environment in the animal facility at McGill University and fed a high protein diet (SRM-A, Hope Farms, Woerden, NL) modified to contain pork instead of beef. All procedures followed Canadian Institutes of Health Research (CIHR) guidlines and were approved by the faculty Animal Care Committee. For ex vivo experiments, ileal mucosa was stripped of muscle and incubated in William's E-Glutamax medium supplemented with insulin (10 μg/ml), 100 U/ml penicillin, and 100 μg/ml streptomycin and dexamethasone (1.6 ng/ml) containing 0.1% DMSO (control) or DMSO containing glafenine for 5 h. The tissue was then rinsed repeatedly and mounted in Ussing chambers to measure […]. For in vivo experiments, mice were feed once per day by gavage with saline containing glafenine (50 mg/kg) or vehicle alone (0.1% DMSO). After 2 days of glafenine treatment the mice were euthanized under CO2, the intestine was dissected and the short circuit current was measured as described above.

[2] = clinical use; cited from earlier work
ΔF508-CFTR [3] = target: T2, ΔF508-CFTR (Homo sapiens, UniProt P13569, DEL508-508); assay: iodide efflux assay in BHK cells expressing ΔF508-CFTR; assay type: cell-based; parameters: which was then ligated into full length pNUT-CFTR linearized using Hpa1 and Pml1; expressed in transfected cells; conditions: 24 h
T2 sequence (P13569 with tags, fused parts or gaps DEL508-508): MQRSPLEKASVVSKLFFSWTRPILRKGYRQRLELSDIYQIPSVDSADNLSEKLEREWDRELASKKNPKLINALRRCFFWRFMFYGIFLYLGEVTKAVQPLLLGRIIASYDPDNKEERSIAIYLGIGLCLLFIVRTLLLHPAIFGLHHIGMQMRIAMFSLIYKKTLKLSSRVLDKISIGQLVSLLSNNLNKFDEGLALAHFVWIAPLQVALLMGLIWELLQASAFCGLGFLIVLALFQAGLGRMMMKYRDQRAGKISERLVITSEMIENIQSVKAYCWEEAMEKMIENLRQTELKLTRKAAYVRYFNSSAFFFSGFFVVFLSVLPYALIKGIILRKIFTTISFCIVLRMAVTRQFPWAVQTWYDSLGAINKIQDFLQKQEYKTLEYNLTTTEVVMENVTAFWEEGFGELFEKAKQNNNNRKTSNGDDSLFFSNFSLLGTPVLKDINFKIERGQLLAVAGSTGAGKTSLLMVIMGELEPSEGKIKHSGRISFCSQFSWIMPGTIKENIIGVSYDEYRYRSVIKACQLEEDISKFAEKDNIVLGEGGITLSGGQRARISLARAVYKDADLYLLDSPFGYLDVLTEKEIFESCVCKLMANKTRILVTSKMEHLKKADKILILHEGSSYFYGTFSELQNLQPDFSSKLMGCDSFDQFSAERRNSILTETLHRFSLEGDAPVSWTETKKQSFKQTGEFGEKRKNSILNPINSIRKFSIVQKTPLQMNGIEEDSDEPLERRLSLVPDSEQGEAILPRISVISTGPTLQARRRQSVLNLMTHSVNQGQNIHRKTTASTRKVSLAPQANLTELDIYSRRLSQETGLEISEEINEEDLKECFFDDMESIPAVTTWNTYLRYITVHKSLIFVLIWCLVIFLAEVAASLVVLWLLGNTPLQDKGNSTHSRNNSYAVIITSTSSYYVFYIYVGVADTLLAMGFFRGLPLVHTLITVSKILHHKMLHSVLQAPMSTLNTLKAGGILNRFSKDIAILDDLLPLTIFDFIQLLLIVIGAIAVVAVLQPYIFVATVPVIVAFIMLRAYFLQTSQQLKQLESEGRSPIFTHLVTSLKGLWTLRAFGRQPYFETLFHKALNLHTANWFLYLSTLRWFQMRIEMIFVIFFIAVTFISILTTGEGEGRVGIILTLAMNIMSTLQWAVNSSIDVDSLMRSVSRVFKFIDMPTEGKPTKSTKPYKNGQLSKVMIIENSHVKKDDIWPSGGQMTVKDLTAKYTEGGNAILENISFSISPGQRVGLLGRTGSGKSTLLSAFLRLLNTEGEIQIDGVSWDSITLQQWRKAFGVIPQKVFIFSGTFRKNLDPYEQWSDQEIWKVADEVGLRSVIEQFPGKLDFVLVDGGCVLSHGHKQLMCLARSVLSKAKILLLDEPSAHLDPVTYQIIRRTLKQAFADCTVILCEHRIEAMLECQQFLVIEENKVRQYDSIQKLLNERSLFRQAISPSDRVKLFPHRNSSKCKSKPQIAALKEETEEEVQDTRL
Procedure: Experiments were performed by hand or with a robotic liquid handling system (BioRobot 8000, Qiagen, USA) using Qiagen 4.1 software. Cells were cultured in 24-well plates until they reached confluence in order to perform parallel experiments and comparison analysis. After treatment (or not) with a test compound, medium in each well was replaced with 1 ml of iodide loading buffer (in mM: 136 NaI, 3 KNO3, 2 Ca(NO3)2, 11 glucose and 20 Hepes pH 7.4) for 1 hour at 37° C. to permit the I′ to reach equilibrium. At the beginning of each experiment, the loading buffer was removed by aspiration and cells were washed eight times with efflux buffer (same as loading buffer except that NaI was replaced with 136 mM NaNO3) to remove extracellular I^− in each well. The loss of intracellular I^− was determined by removing the medium and replacing it with fresh efflux buffer every 1 min for up to 11 min. The first four aliquots were recovered at 1-minute intervals in an empty 24-well plate and used to establish a stable baseline in efflux buffer alone. A stimulation buffer (efflux buffer containing 50 μM genistein+10 μM forskolin) was then added and sampling continued with replacement by stimulation buffer. The iodide concentration of each aliquot was determined using an iodide-sensitive electrode (Orion Research Inc., Boston, Mass., USA or Ecomet) and converted to iodide content (i.e. the amount of iodide released during the 1 min interval). Curves were constructed by plotting concentration versus time. Data are presented as means±SEM.
Iodide effluxes were performed using a robotic liquid handling system (BioRobot 8000, Qiagen, Valencia, Calif.) and Qiagen 4.1 software. Cells were cultured to confluence in 24-well plates. After treatment (or not) with a test compound, the medium in each well was replaced with 1 ml of iodide loading buffer: 136 mM NaI, 3 mM KNO3, 2 mM Ca(NO3)2, 11 mM glucose, 20 mM Hepes, pH 7.4 with NaOH) and incubated for 1 h at 37° C. At the beginning of each experiment, the loading buffer was removed by aspiration and cells were washed eight times with 300 μl efflux buffer (same as loading buffer except that NaI was replaced with 136 mM NaNO3) to remove extracellular I^−. Efflux was measured by replacing the medium with 300 μl fresh efflux buffer at 1 min intervals for up to 11 min. The first four aliquots were used to establish a stable baseline, then buffer containing 10 μM forskolin+50 μM genistein was used to stimulate CFTR activity. Iodide concentration was measured in each aliquot (300 μl) using an iodide-sensitive electrode (Orion Research Inc., Boston, Mass.). Relative iodide efflux rate was calculated using the difference between maximum (peak) iodide concentration during stimulation and minimum iodide concentration before stimulation (in μM/min). […]

ΔF508-CFTR [4] = target: T2, ΔF508-CFTR; assay: iodide efflux assay in CFBE41o− airway epithelial cells; assay type: cell-based; parameters: expressed in transfected cells; host or cells: CFBE41o- (ΔF508/ΔF508) transduced with ΔF508-CFTR, TranzVector lentivirus, provided by J. P. Clancy; conditions: compared with BHK
Procedure: Experiments were performed by hand or with a robotic liquid handling system (BioRobot 8000, Qiagen, USA) using Qiagen 4.1 software. Cells were cultured in 24-well plates until they reached confluence in order to perform parallel experiments and comparison analysis. After treatment (or not) with a test compound, medium in each well was replaced with 1 ml of iodide loading buffer (in mM: 136 NaI, 3 KNO3, 2 Ca(NO3)2, 11 glucose and 20 Hepes pH 7.4) for 1 hour at 37° C. to permit the I′ to reach equilibrium. […] The loss of intracellular I^− was determined by removing the medium and replacing it with fresh efflux buffer every 1 min for up to 11 min. […] The iodide concentration of each aliquot was determined using an iodide-sensitive electrode (Orion Research Inc., Boston, Mass., USA or Ecomet) and converted to iodide content (i.e. the amount of iodide released during the 1 min interval). […]
Iodide effluxes were performed using a robotic liquid handling system (BioRobot 8000, Qiagen, Valencia, Calif.) and Qiagen 4.1 software. […] Efflux was measured by replacing the medium with 300 μl fresh efflux buffer at 1 min intervals for up to 11 min. […] Iodide concentration was measured in each aliquot (300 μl) using an iodide-sensitive electrode (Orion Research Inc., Boston, Mass.). […]

## O=C(OCC(O)CO)c1ccccc1Nc1ccnc2cc(Cl)ccc12 (stereo not drawn) [Glafenine hydrochloride, 2-[(7-chloro-4-quinolinyl)amino]benzoic acid 2,3-dihydroxypropyl ester]
ΔF508-CFTR [1]
  forskolin+genistein-stimulated current versus vehicle alone: ~12 fold
  restoration of the secretory response observed in wild-type mice: ~46% and ≈ 46%
[2]
  concentration achieved clinically in plasma: 10 µM
ΔF508-CFTR [3]; 10 μM, 10 μM forskolin+50 μM genistein, versus vehicle
  increase of cAMP-stimulated iodide efflux response: 3.3 fold
ΔF508-CFTR [3]; iodide efflux, BHK
  concentration required for significant restoration of ΔF508-CFTR function: 1 to 10 µM
ΔF508-CFTR [4]
  rescue of iodide efflux: more striking
